Laboratory results taken from the supplement of paper PMC10307832.

Key:
Test in all cases: relative viability (nuclei count vs DMSO), 5 days (fraction); higher = more cells survive
[1] = compound: CC1=CC=C(C=C1)C(=O)CN2C3=C(CCCC3)SC2=N [Pifithrin_alpha] + CS(=O)(=O)N1CCN(Cc2cc3nc(-c4cccc5[nH]ncc45)nc(N4CCOCC4)c3s2)CC1 [Pictilisib] (partner 1 µM)
How it was run: (§1)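 Each reported value is a median over duplicate plates. It expresses relative viability: treated-well nuclei count divided by vehicle-well nuclei count. Lung cancer cell lines in 1536-well plates were dosed by pin tool a day after seeding, alone with one drug or with a fixed anchor-drug dose plus five library-drug doses (not always all listed) in √10 steps, and nuclei were counted after 5 days.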

Bemcentinib + Trametinib = compound: Nc1nc(Nc2ccc3c(c2)CC[C@@H](N2CCCC2)CC3)nn1-c1cc2c(nn1)-c1ccccc1CCC2 [Bemcentinib] + CC(=O)Nc1cccc(-n2c(=O)n(C3CC3)c(=O)c3c(Nc4ccc(I)cc4F)n(C)c(=O)c(C)c32)c1 [Trametinib] (partner 0.02 µM)
How it was run: as §1

[2] = compound: Nc1nc(Nc2ccc3c(c2)CC[C@@H](N2CCCC2)CC3)nn1-c1cc2c(nn1)-c1ccccc1CCC2 [Bemcentinib] + CC(=O)c1c(C)c2cnc(Nc3ccc(N4CCNCC4)cn3)nc2n(C2CCCC2)c1=O [Palbociclib] (partner 0.5 µM)
How it was run: as §1

Bemcentinib + AZD7762 = compound: Nc1nc(Nc2ccc3c(c2)CC[C@@H](N2CCCC2)CC3)nn1-c1cc2c(nn1)-c1ccccc1CCC2 [Bemcentinib] + NC(=O)Nc1cc(-c2cccc(F)c2)sc1C(=O)N[C@H]1CCCNC1 [AZD7762] (partner 0.2 µM)
How it was run: as §1

Cell Line | relative viability ([1]; first compound 1 µM) | relative viability ([1]; first compound 3.162 µM) | relative viability ([1]; first compound 10 µM) | relative viability ([1]; first compound 31.62 µM) | relative viability ([1]; first compound 100 µM) | relative viability (Bemcentinib + Trametinib; first compound 0.04 µM) | relative viability (Bemcentinib + Trametinib; first compound 0.1265 µM) | relative viability (Bemcentinib + Trametinib; first compound 0.4 µM) | relative viability (Bemcentinib + Trametinib; first compound 1.265 µM) | relative viability (Bemcentinib + Trametinib; first compound 4 µM) | relative viability ([2]; first compound 0.04 µM) | relative viability ([2]; first compound 0.1265 µM) | relative viability ([2]; first compound 0.4 µM) | relative viability ([2]; first compound 1.265 µM) | relative viability ([2]; first compound 4 µM) | relative viability (Bemcentinib + AZD7762; first compound 0.04 µM) | relative viability (Bemcentinib + AZD7762; first compound 0.1265 µM) | relative viability (Bemcentinib + AZD7762; first compound 0.4 µM) | relative viability (Bemcentinib + AZD7762; first compound 1.265 µM) | relative viability (Bemcentinib + AZD7762; first compound 4 µM)
LC-2-ad | 0.414 | 0.382 | 0.489 | 0.304 | 0.18 | 0.946 | 0.963 | 0.952 | 0.98 | 0.962 | 0.557 | 0.49 | 0.524 | 0.565 | 0.516 | 0.807 | 0.838 | 1.01 | 0.831 | 0.84
LCLC-97TM1 | – | 0.179 | 0.224 | – | 0.229 | 0.206 | 0.195 | 0.2 | 0.232 | 0.2 | 0.253 | 0.283 | 0.231 | 0.261 | 0.264 | 0.183 | 0.298 | 0.186 | 0.28 | 0.309
LCLC-103H | 0.53 | 0.531 | 0.566 | 0.551 | 0.567 | 0.706 | 0.736 | 0.679 | 0.712 | 0.707 | 0.459 | 0.438 | 0.522 | 0.497 | 0.554 | 0.764 | 0.818 | 0.851 | 0.81 | 0.852
LK-2 | 0.631 | 0.599 | 0.589 | – | 0.62 | 0.798 | 0.908 | 0.629 | 0.795 | 0.885 | 0.78 | 0.75 | 0.934 | 0.728 | 0.665 | 0.281 | 0.42 | 0.289 | 0.508 | 0.48
LOU-NH91 | 0.473 | 0.476 | 0.444 | 0.442 | 0.371 | 0.807 | 0.792 | 0.849 | 0.822 | 0.789 | 0.521 | 0.564 | 0.525 | 0.513 | 0.537 | 0.423 | 0.77 | 0.791 | 0.806 | 0.799
LU99A | 0.35 | 0.311 | 0.325 | – | 0.305 | 0.516 | 0.641 | 0.55 | 0.596 | 0.51 | 0.367 | 0.37 | 0.422 | 0.401 | 0.413 | 0.377 | 0.375 | 0.394 | 0.344 | 0.35
LXF-289 | 0.818 | 0.694 | 0.726 | 0.498 | 0.687 | 0.705 | 0.681 | 0.648 | 0.7 | 0.773 | 0.633 | 0.629 | 0.581 | 0.558 | 0.622 | 1.16 | 1.22 | 1.09 | 1.19 | 1.2
NCI-H23 | 0.491 | 0.459 | 0.491 | 0.343 | 0.365 | 0.363 | 0.432 | 0.353 | 0.429 | 0.466 | 0.443 | 0.472 | 0.558 | 0.457 | 0.519 | 0.282 | 0.245 | 0.208 | 0.201 | 0.212
